Consider one compound from patent US12427151B2, “Compositions and method of treating cancer” (The Regents of the University of California, priority 2017, dated 2025).

One assay has as its system GAS. Briefly: Antimicrobial activity against GAS in the presence of adenine. The format is cell-based, group A Streptococcus. The conditions noted are these: 20 hrs, CFU. As for the experimental part:
(a) Time course killing of GAS in THB containing 6-HAP (25 μg/mL), mitomycin C (5 μg/mL), or LL-37 (10 μM). At each indicated time point, live GAS in the media was measured by counting CFU on an agar plate. The data represent mean±SE of four individual experiments. (b) Membrane permeability of GAS incubated in THB containing 6-HAP (25 μg/mL), mitomycin C (5 μg/mL) and LL-37 (10 μM) for 1 hr. The bacteria with compromised plasma membranes (Red) can be distinguished from those with intact membranes (Green). (c) BrdU incorporation into nascent DNA of GAS after incubation with 6-HAP (25 μg/mL) or mitomycin C (5 μg/mL) in THB containing BrdU (10 μM) for 30 or 60 min. (d) BrdU incorporation into nascent DNA of S. epidermidis ATCC12228 after incubation with 6-HAP (25 μg/mL) or mitomycin C (5 μg/mL) in THB containing BrdU (10 μM) for 60 min. The data represent mean±SE of five individual experiments (*P<0.05 and **P<0.01 by Student's t-test vs vehicle control). […] Extension reaction was analyzed on a 20% acrylamide gel by electrophoresis (f). […] GAS survival was measured by counting CFU. […]
We next assessed the effect of 6-HAP on DNA synthesis. […] To directly examine the action of 6-HAP on DNA extension in a cell free system, 25-bp templates and matching 18-bp fluorescence primers were designed to measure DNA extension in vitro by Klenow (exo) DNA polymerase (FIG. 4e).

Another assay relates to M. luteus ATCC4698. The experiment in a line: MBC determination. Format: cell-based. Conditions: Micrococcus luteus, 3-log reduction, 24 hour, 37° C., half strength MHB in PBS.
The next assay deals with B16F10 melanoma. Briefly: In vivo tumor growth assay. More on the design: species or system C57BL6 mice. Conditions: intravenous 20 mg/kg every 48 hrs for 2 weeks. The protocol: (a-c) Effect of a single intravascular injection of 6-HAP on skin infection by GAS. The size of the infected lesion was measured by Image-J software (a). Representative images of infected skin (arrow) of mouse treated with 6-HAP or vehicle at Day-1 and Day-3 post infection are shown in (b). Infected skin was removed 24 and 72 hrs after bacterial injection and homogenized in PBS (c). CFUs were enumerated by plating serial dilutions of the homogenate on an agar plate. The data represent mean±SE of eight individual experiments (*P<0.05 and **P<0.01 by Student's t-test vs vehicle control). (d-e) Effect of repeated intravascular administrations with 6-HAP on growth of melanoma in mice. The data represent mean±SE of 10 individual experiments (*P<0.05, **P<0.01 and ***P<0.001 by Student's t-test vs vehicle control) (d). Representative images of tumor (broken line) in mouse treated with 6-HAP or vehicle at Day-9 and Day-13 are shown in (e).
In vivo tumor growth assay. B16F10 were suspended in sterile PBS. Shaved mouse dorsal skin was intradermally injected with 3×10^5 cells/50 μL. The C57BL6 mice were subsequently injected with 6-HAP dissolved in 2.5% DMSO/0.9% NaCl solution (40 mg/mL) at the dose of 20 mg/kg mouse via intravascular route every 48 hrs for 2 weeks. […] Tumor size was measured as the two perpendicular diameters with a caliper and volume was estimated by a formula, width^2×length/2. […]

The subject of another assay is S. hominis ATCC27844. The experiment in a line: MBC determination. Format: cell-based. The conditions noted are these: Staphylococcus hominis, 3-log reduction, 24 hour, 37° C., half strength MHB in PBS. As for the experimental part:
(§1) To determine MBC, bacteria were cultured in TSB (Staphylococcus), THB (Streptococcus) or Nutrient broth (P. aeruginosa and E. coli) by reaching exponential phase (OD600=0.5-0.8). […] After incubation, the number of viable bacteria was measured by counting CFU after spreading 10-fold serial dilutions of bacteria on suitable agar plates. MBC was determined as a 3-log reduction (99.9%) of viable bacteria after 24 hour incubation.
(§2) Antimicrobial activity of 6-HAP in vitro. To examine the specificity of 6-HAP for various bacteria, minimal bactericidal concentrations (MBCs) were determined according to dose-dependent killing curves at 24 hrs of incubation in vitro (Table 1). 6-HAP killed or suppressed growth of several major skin pathogens including GAS (NZ131), group B Streptococcus (GBS) (DK23), methicillin-sensitive S. aureus (ATCC35556), methicillin-resistant S. aureus (MRSA) strains (USA300 and Sanger252), Pseudomonas aeruginosa (P. aeruginosa) (ATCC14213) in vitro. […] S. epidermidis (ATCC12228) was also resistant to 6-HAP.

For another assay, the system named is S. aureus ATCC35556. Briefly: MBC determination. Conditions: Staphylococcus aureus, 3-log reduction, 24 hour, 37° C., half strength MHB in PBS. The format is cell-based. The protocol: as §1, §2
In the next assay the test system is P. aeruginosa ATCC14213. Briefly: MBC determination. The format is cell-based. The conditions noted are these: Pseudomonas aeruginosa, 3-log reduction, 24 hour, 37° C., half strength MHB in PBS. As for the experimental part:
as §1, §2

For the next assay, the system named is E. coli ATCC25922. The experiment in a line: MBC determination. Format: cell-based. Conditions: Escherichia coli, 3-log reduction, 24 hour, 37° C., half strength MHB in PBS. As for the experimental part: as §1, §2

Values after ≈ are worked out from the molar mass of the structure shown.

The MBC is the smallest concentration meeting the test's criterion for killing. A higher MBC goes with weaker bactericidal potency. `ONc1ncnc2nc[nH]c12` [6-HAP, 6-N-hydroxyaminopurine]: the “antimicrobial activity against GAS on addition of excessive adenine” value with GAS was “partially decreased”. Also, the minimal bactericidal concentration (MBC) amounted to 12.5 µg/mL (≈ 82.7 µM) against M. luteus ATCC4698; 12.5 µg/mL (≈ 82.7 µM) against S. hominis ATCC27844; 6.25 µg/mL (≈ 41.4 µM) against S. aureus ATCC35556; 1.56 µg/mL (≈ 10.3 µM) in the assay with P. aeruginosa ATCC14213; 50 µg/mL (≈ 331 µM) against E. coli ATCC25922. In addition, in the assay on B16F10 melanoma, the “tumor size suppression compared to vehicle” value is greater than 60%.
